Assay results from BindingDB's records for doi:10.1021/jm800930w (Kyoto University, 2008).

Target: KiSS-1 receptor (Homo sapiens, UniProt Q969F8)
Assay: Receptor Binding Assay
Settings: pH 7.3; 25 °C

Sequence of KiSS-1 receptor (Q969F8 whole entry): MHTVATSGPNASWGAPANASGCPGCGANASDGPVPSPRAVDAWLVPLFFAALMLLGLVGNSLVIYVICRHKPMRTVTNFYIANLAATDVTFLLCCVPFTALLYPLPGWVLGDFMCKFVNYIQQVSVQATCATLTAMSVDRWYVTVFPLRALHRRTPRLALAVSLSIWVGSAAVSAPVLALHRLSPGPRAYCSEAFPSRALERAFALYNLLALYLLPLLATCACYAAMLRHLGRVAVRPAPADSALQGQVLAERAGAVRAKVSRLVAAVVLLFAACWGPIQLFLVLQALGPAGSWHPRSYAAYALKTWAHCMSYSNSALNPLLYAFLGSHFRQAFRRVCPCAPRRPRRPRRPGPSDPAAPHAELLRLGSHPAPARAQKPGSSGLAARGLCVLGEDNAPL

SMILES: CC(C)C[C@H](NC(=O)CNC(=O)[C@H](Cc1ccccc1)NC(=O)[C@H](CO)NC(=O)[C@H](CC(N)=O)NC(=O)[C@H](Cc1c[nH]c2ccccc12)NC(=O)[C@H](CC(N)=O)NC(=O)[C@@H](N)Cc1ccc(O)cc1)C(=O)N[C@@H](CCCNC(=N)N)C(=O)N[C@@H](Cc1ccccc1)C(N)=O [(2S)-2-[(2S)-2-[(2S)-2-[(2S)-2-amino-3-(4-hydroxyphenyl)propanamido]butanediamido]-3-(1H-indol-3-yl)propanamido]-N-[(1S)-1-{[(1S)-1-[({[(1S)-1-{[(1S)-4-carbamimidamido-1-{[(1S)-1-carbamoyl-2-phenylethyl]carbamoyl}butyl]carbamoyl}-3-methylbutyl]carbamoyl}methyl)carbamoyl]-2-phenylethyl]carbamoyl}-2-hydroxyethyl]butanediamide]
- IC50: 0.12 nM
